Data on 23 molecules can be found in patent publication US8436043B2 (Takeda Pharmaceutical Company Limited, priority 2008, dated 2013).

The structures appear in SMILES notation.

T1 sequence (P47871 26-477): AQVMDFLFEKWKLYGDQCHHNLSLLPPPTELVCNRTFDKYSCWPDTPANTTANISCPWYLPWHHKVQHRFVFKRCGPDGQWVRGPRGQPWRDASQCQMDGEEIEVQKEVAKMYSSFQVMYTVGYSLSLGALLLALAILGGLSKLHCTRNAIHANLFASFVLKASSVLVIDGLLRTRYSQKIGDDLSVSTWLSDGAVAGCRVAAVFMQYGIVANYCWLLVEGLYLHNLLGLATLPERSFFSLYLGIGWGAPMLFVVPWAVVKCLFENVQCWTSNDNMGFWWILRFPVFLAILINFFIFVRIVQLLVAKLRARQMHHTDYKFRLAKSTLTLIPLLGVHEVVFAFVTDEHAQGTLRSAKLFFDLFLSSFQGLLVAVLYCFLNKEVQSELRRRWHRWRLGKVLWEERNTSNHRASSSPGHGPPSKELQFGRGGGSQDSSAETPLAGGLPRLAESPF

The first experiment has as its target T1, human glucagon receptor (Homo sapiens, UniProt P47871).
T1 construct: made in house; host or cells: FreeStyle CHO cells, transient transfection with pMSRαneo/hGCGR; membrane fraction (35,000 rpm pellet)
The experiment is described as follows: Glucagon binding inhibitory activity ([125I]-glucagon binding to glucagon receptor membrane protein). To be noted: human glucagon receptor membrane protein, [125I]-glucagon, 90 min room temperature. The procedure:
The glucagon binding inhibitory action of the compound of the present invention was evaluated by the following method.
(1) Cloning of Human Glucagon Receptor Gene
Human glucagon receptor gene was cloned by PCR reaction using human pancreas Marathon-ready cDNA (Clontech) as a template and the following primer set.
PCR reaction was performed using Advantage 2 polymerase (Clontech) and according to the attached protocol. The obtained PCR product was electrophoresed on an agarose gel (1%). An about 1.4 kb of DNA fragment containing a glucagon receptor gene was recovered from the gel and digested with restriction enzymes EcoRI and NotI. DNA treated with the restriction enzymes was electrophoresed on an agarose gel (1%). An about 1.4 kb of DNA fragment was recovered and ligated to plasmid pMSRαneo digested with restriction enzymes EcoRI and NotI to construct a human-type glucagon receptor expression plasmid DNA “pMSRαneo/hGCGR”.
(2) Preparation of Glucagon Receptor Membrane Protein
A human-type glucagon receptor was expressed using FreeStyle CHO Expression System (Invitrogen). A transient expression in FreeStyle CHO cell was performed using a human-type glucagon receptor expression plasmid DNA “pMSRαneo/hGCGR” and according to the manual attached to the FreeStyle CHO Expression System. The above-mentioned DNA was transfected and the cultured with shaking for 2 days (37° C., 8% CO2, 125 rpm). 2400 ml of culture medium was centrifuged at 2,000 rpm for 10 min and the cells were collected. The collected cells were washed with PBS, suspended in homogenate buffer [10 mM NaHCO3 (pH 7.4), 1 mM EDTA, Complete EDTA-free (Roche, 1 tablet/50 ml)] and disrupted by polytron cell disrupter (Kinematica AG). Disruption solution was centrifuged at 2,000 rpm for 10 min and the supernatant was collected.
(3) Measurement of Glucagon Binding Inhibitory Activity
The plate was stood for 90 min at room temperature. The reaction solution was transferred from the reaction plate to a 96 well unifilter GF/C plate (Perkin Elmer Inc.) using a cell harvester (Perkin Elmer Inc.) and the membrane fraction was collected on the filter by suction. The filter was presoaked in 2 mg/ml of polyethyleneimine to prevent non-specific adsorption of labeled ligand. The filter was washed 4 times with a reaction buffer and dried for 2 hr at 42° C. To each well was added 25 μl of scintillator (MicroScint0; Perkin Elmer Inc.), and the fluorescence amount was measured using a microplate scintillation counter (TopCount NXT™; Perkin Elmer Inc.).
In addition, the inhibitory rate (%) of the well added with the test compound (10 μM; containing 0.4% DMSO) was calculated, using the reaction rate of the well added only with 0.4% DMSO as 0% inhibitory rate, and the reaction rate of the well added with non-labeled glucagon (final concentration 1 μM) as 100% inhibitory rate.
With `CN(CCC(=O)O)C(=O)c1ccc(NC(c2cn(-c3ccc(OC(F)(F)F)cc3)nc2OCc2ccccc2)C2CCCCC2)cc1` (stereo not drawn) [Example 61, 3-{[(4-{[{3-(benzyloxy)-1-[4-(trifluoromethoxy)phenyl]-1H-pyrazol-4-yl}(cyclohexyl)methyl]amino}phenyl)carbonyl](methyl)amino}-propanoic acid], the IC50 (commonly the concentration that inhibits the measured activity by half) is 320 nM.

Staying with this experiment, now noted: test compound 10 μM; 0.4% DMSO = 0%, non-labeled glucagon 1 μM = 100%; read-out: inhibitory rate (%) at 10 μM.
With `CCc1nn(-c2ccc(OC)cc2)cc1C(CC(C)C)Nc1ccc(C(=O)NCCC(=O)O)cc1` (stereo not drawn) [Example 48, 3-({[4-({1-[3-ethyl-1-(4-methoxyphenyl)-1H-pyrazol-4-yl]-3-methylbutyl}amino)phenyl]carbonyl}amino)propanoic acid], the inhibition at 10 µM stood at 63%.

On to `CCc1nn(-c2ccc(OC)cc2)cc1C(Nc1ccc(C(=O)NCCC(=O)O)cc1)C1CCCCC1` (stereo not drawn) [Example 50, 3-({[4-({cyclohexyl[3-ethyl-1-(4-methoxyphenyl)-1H-pyrazol-4-yl]methyl}amino)phenyl]carbonyl}amino)propanoic acid], for which the inhibition at 10 µM is 68%.

`CCc1nn(-c2ccc(OC)cc2)cc1C(Nc1ccc(C(=O)N(C)CCC(=O)O)cc1)C1CCCCC1` (stereo not drawn) [Example 51, 3-[{[4-({cyclohexyl[3-ethyl-1-(4-methoxyphenyl)-1H-pyrazol-4-yl]methyl}amino)phenyl]carbonyl}(methyl)amino]propanoic acid]: the inhibition at 10 µM was 60%.

For the molecule `COc1ccc(-n2cc(C(Nc3ccc(C(=O)NCCC(=O)O)cc3)C3CCCCC3)c(C(C)C)n2)cc1` (stereo not drawn) [Example 52, 3-({[4-({cyclohexyl[1-(4-methoxyphenyl)-3-(1-methylethyl)-1H-pyrazol-4-yl]methyl}amino)phenyl]carbonyl}amino)propanoic acid], the inhibition at 10 µM was 63%.

Consider `COc1ccc(-n2cc(C(CC(C)C)Nc3ccc(C(=O)NCCC(=O)O)cc3)c(C(C)C)n2)cc1` (stereo not drawn) [Example 54, 3-({[4-({1-[1-(4-methoxyphenyl)-3-(1-methylethyl)-1H-pyrazol-4-yl]-3-methylbutyl}amino)phenyl]carbonyl}amino)propanoic acid], for which the inhibition at 10 µM was 62%.

Turning to `CCn1nc(-c2ccc(C(F)(F)F)cc2)cc1C(Nc1ccc(C(=O)NCCC(=O)O)cc1)C1CCCCC1` (stereo not drawn) [Example 56, 3-[({4-[(cyclohexyl{1-ethyl-3-[4-(trifluoromethyl)phenyl]-1H-pyrazol-5-yl}methyl)amino]phenyl}carbonyl)amino]propanoic acid], the inhibition at 10 µM turned out to be 76%.

As for `CCn1nc(-c2ccc(OC(F)(F)F)cc2)cc1C(Nc1ccc(C(=O)N(C)CCC(=O)O)cc1)C1CCCCC1` (stereo not drawn) [Example 58, 3-[({4-[(cyclohexyl{1-ethyl-3-[4-(trifluoromethoxy)phenyl]-1H-pyrazol-5-yl}methyl)amino]phenyl}carbonyl)(methyl)amino]propanoic acid], the inhibition at 10 µM worked out at 69%.

As to `CCn1nc(-c2ccc(OC(F)(F)F)cc2)cc1C(CC(C)C)Nc1ccc(C(=O)N(C)CCC(=O)O)cc1` (stereo not drawn) [Example 59, 3-[({4-[(1-{1-ethyl-3-[4-(trifluoromethoxy)phenyl]-1H-pyrazol-5-yl}-3-methylbutyl)amino]phenyl}carbonyl)(methyl)amino]propanoic acid], the inhibition at 10 µM came to 61%.

For `O=C(O)CCNC(=O)c1ccc(NC(c2cn(-c3ccc(OC(F)(F)F)cc3)nc2OCc2ccccc2)C2CCCCC2)cc1` (stereo not drawn) [Example 60, 3-{[(4-{[{3-(benzyloxy)-1-[4-(trifluoromethoxy)phenyl]-1H-pyrazol-4-yl}(cyclohexyl)methyl]amino}phenyl)carbonyl]amino}propanoic acid], the inhibition at 10 µM worked out at 71%.

`CN(CCC(=O)O)C(=O)c1ccc(NC(c2cn(-c3ccc(OC(F)(F)F)cc3)nc2OCc2ccccc2)C2CCCCC2)cc1` (stereo not drawn) [Example 61, 3-{[(4-{[{3-(benzyloxy)-1-[4-(trifluoromethoxy)phenyl]-1H-pyrazol-4-yl}(cyclohexyl)methyl]amino}phenyl)carbonyl](methyl)amino}-propanoic acid]: the inhibition at 10 µM amounted to 75%.

As to `COc1nn(-c2ccc(OC(F)(F)F)cc2)cc1C(Nc1ccc(C(=O)NCCC(=O)O)cc1)C1CCCCC1` (stereo not drawn) [Example 62, 3-[({4-[(cyclohexyl{3-methoxy-1-[4-(trifluoromethoxy)phenyl]-1H-pyrazol-4-yl}methyl)amino]phenyl}carbonyl)amino]propanoic acid], the inhibition at 10 µM was found to be 68%.

As to `COc1nn(-c2ccc(OC(F)(F)F)cc2)cc1C(Nc1ccc(C(=O)N(C)CCC(=O)O)cc1)C1CCCCC1` (stereo not drawn) [Example 63, 3-[({4-[(cyclohexyl{3-methoxy-1-[4-(trifluoromethoxy)phenyl]-1H-pyrazol-4-yl}methyl)amino]phenyl}carbonyl)(methyl)amino]propanoic acid], the inhibition at 10 µM stood at 72%.

As to `CC(C)Oc1nn(-c2ccc(OC(F)(F)F)cc2)cc1C(Nc1ccc(C(=O)NCCC(=O)O)cc1)C1CCCCC1` (stereo not drawn) [Example 64, 3-[({4-[(cyclohexyl{3-(1-methylethoxy)-1-[4-(trifluoromethoxy)phenyl]-1H-pyrazol-4-yl}methyl)amino]phenyl}carbonyl)amino]propanoic acid], the inhibition at 10 µM was 70%.

For the molecule `CC(C)Oc1nn(-c2ccc(OC(F)(F)F)cc2)cc1C(Nc1ccc(C(=O)N(C)CCC(=O)O)cc1)C1CCCCC1` (stereo not drawn) [Example 65, 3-[({4-[(cyclohexyl{3-(1-methylethoxy)-1-[4-(trifluoromethoxy)phenyl]-1H-pyrazol-4-yl}methyl)amino]phenyl}carbonyl)(methyl)amino]propanoic acid], the inhibition at 10 µM worked out at 64%.

On to `O=C(O)CCNC(=O)c1ccc(NC(c2cn(-c3ccccc3)nc2OCc2ccccc2)C2CCCCC2)cc1` (stereo not drawn) [Example 66, 3-({[4-({[3-(benzyloxy)-1-phenyl-1H-pyrazol-4-yl](cyclohexyl)methyl}amino)phenyl]carbonyl}amino)propanoic acid], for which the inhibition at 10 µM was 74%.

For `CN(CCC(=O)O)C(=O)c1ccc(NC(c2cn(-c3ccccc3)nc2OCc2ccccc2)C2CCCCC2)cc1` (stereo not drawn) [Example 67, 3-[{[4-({[3-(benzyloxy)-1-phenyl-1H-pyrazol-4-yl](cyclohexyl)methyl}amino)phenyl]carbonyl}(methyl)amino]-propanoic acid], the inhibition at 10 µM was determined as 72%.

Consider `COc1ccc(-n2cc(C(Nc3ccc(C(=O)NCCC(=O)O)cc3)C3CCCCC3)c(CN3CCOCC3)n2)cc1` (stereo not drawn) [Example 68, 3-({[4-({cyclohexyl[1-(4-methoxyphenyl)-3-(morpholin-4-ylmethyl)-1H-pyrazol-4-yl]methyl}amino)phenyl]carbonyl}amino)propanoic acid], for which the inhibition at 10 µM came out at 66%.

Take `COc1cccc(-n2cc(C(Nc3ccc(C(=O)N(C)CCC(=O)O)cc3)C3CCCCC3)c(C)n2)c1` (stereo not drawn) [Example 70, 3-[{[4-({cyclohexyl[1-(3-methoxyphenyl)-3-methyl-1H-pyrazol-4-yl]methyl}amino)phenyl]carbonyl}(methyl)amino]propanoic acid]: the inhibition at 10 µM is 75%.

On to `Cc1nn(-c2cccc(Cl)c2)cc1C(Nc1ccc(C(=O)N(C)CCC(=O)O)cc1)C1CCCCC1` (stereo not drawn) [Example 71, 3-[{[4-({[1-(3-chlorophenyl)-3-methyl-1H-pyrazol-4-yl](cyclohexyl)methyl}amino)phenyl]carbonyl}(methyl)amino]-propanoic acid], for which the inhibition at 10 µM is 71%.

In the case of `COc1ccccc1-n1cc(C(Nc2ccc(C(=O)N(C)CCC(=O)O)cc2)C2CCCCC2)c(C)n1` (stereo not drawn) [Example 72, 3-[{[4-({[1-(2-methoxyphenyl)-3-methyl-1H-pyrazol-4-yl](cyclohexyl)methyl}amino)phenyl]carbonyl}(methyl)amino]-propanoic acid], the inhibition at 10 µM turned out to be 51%.

Consider `Cc1nn(-c2ccccc2Cl)cc1C(Nc1ccc(C(=O)N(C)CCC(=O)O)cc1)C1CCCCC1` (stereo not drawn) [Example 73, 3-[{[4-({[1-(2-chlorophenyl)-3-methyl-1H-pyrazol-4-yl](cyclohexyl)methyl}amino)phenyl]carbonyl}(methyl)amino]-propanoic acid], for which the inhibition at 10 µM is 59%.

For `COc1cccc(-n2cc(C)c(C(Nc3ccc(C(=O)N(C)CCC(=O)O)cc3)C3CCCCC3)n2)c1` (stereo not drawn) [Example 75, 3-[{[4-({cyclohexyl[1-(3-methoxyphenyl)-4-methyl-1H-pyrazol-3-yl]methyl}amino)phenyl]carbonyl}(methyl)amino]propanoic acid], the inhibition at 10 µM was 61%.

For the molecule `COCc1nn(-c2cccc(OC)c2)cc1C(Nc1ccc(C(=O)N(C)CCC(=O)O)cc1)C1CCCCC1` (stereo not drawn) [Example 76], the inhibition at 10 µM came out at 68%.
